# Test system: MDA-MB-468 spheroids with HUVEC/MSC, viability
# Experiment: Anticancer human tumor MDA-MB-468 cell line growth inhibition [PI3K];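 further: spheroids exposed to agents for seven days before readout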;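 on viability, T/C: 100% = DMSO vehicle control viability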
# Details: for IC50: curve of first compound; for viability, T/C: stronger effect = lower value
# Summary of the method: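 Tumor cells were combined with HUVEC and MSCs into spheroids, then dosed with PI3K-inhibitor combinations over half-log ranges capped near clinical Cmax or 10 microM.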
# [1] = second compound 0.0316 µM, first compound 0.000316 µM
# [2] = second compound 0.0316 µM, first compound 0.001 µM
# [3] = second compound 0.0316 µM, first compound 0.00316 µM
# [4] = second compound 0.0316 µM, first compound 0.01 µM
# [5] = second compound 0.0316 µM, first compound 0.0316 µM
# [6] = second compound 0.0316 µM, first compound 0.1 µM
# [7] = second compound 0.1 µM, first compound 0.000316 µM
# [8] = second compound 0.1 µM, first compound 0.001 µM
# [9] = second compound 0.1 µM, first compound 0.00316 µM
# [10] = second compound 0.1 µM, first compound 0.01 µM
# [11] = second compound 0.1 µM, first compound 0.0316 µM
# [12] = second compound 0.1 µM, first compound 0.1 µM
# [13] = second compound 0.316 µM, first compound 0.000316 µM
# [14] = second compound 0.316 µM, first compound 0.001 µM
# [15] = second compound 0.316 µM, first compound 0.00316 µM
# [16] = second compound 0.316 µM, first compound 0.01 µM
# [17] = second compound 0.316 µM, first compound 0.0316 µM
# [18] = second compound 0.316 µM, first compound 0.1 µM
# [19] = second compound 1 µM, first compound 0.000316 µM
# [20] = second compound 1 µM, first compound 0.001 µM
# [21] = second compound 1 µM, first compound 0.00316 µM
# [22] = second compound 1 µM, first compound 0.01 µM
# [23] = second compound 1 µM, first compound 0.0316 µM
# [24] = second compound 1 µM, first compound 0.1 µM
# [25] = second compound 3.16 µM, first compound 0.000316 µM
# [26] = second compound 3.16 µM, first compound 0.001 µM
# [27] = second compound 3.16 µM, first compound 0.00316 µM
# [28] = second compound 3.16 µM, first compound 0.01 µM
# [29] = second compound 3.16 µM, first compound 0.0316 µM
# [30] = second compound 3.16 µM, first compound 0.1 µM
# [31] = second compound 10 µM, first compound 0.000316 µM
# [32] = second compound 10 µM, first compound 0.001 µM
# [33] = second compound 10 µM, first compound 0.00316 µM
# [34] = second compound 10 µM, first compound 0.01 µM
# [35] = second compound 10 µM, first compound 0.0316 µM
# [36] = second compound 10 µM, first compound 0.1 µM
smiles,measurement,setting,value
CC(=O)c1c(C)c2cnc(Nc3ccc(N4CCNCC4)cn3)nc2n(C2CCCC2)c1=O + CC(Nc1ncnc2nc[nH]c12)c1cc2cccc(Cl)c2c(=O)n1-c1ccccc1,IC50,second compound 0.0316 µM,> 100 nM
same,IC50,second compound 0.1 µM,> 100 nM
same,IC50,second compound 0.316 µM,> 100 nM
same,IC50,second compound 1 µM,> 100 nM
same,IC50,second compound 3.16 µM,> 100 nM
same,IC50,second compound 10 µM,< 0.316 nM
same,"viability, T/C",[1],92.6%
same,"viability, T/C",[2],93.9%
same,"viability, T/C",[3],84.6%
same,"viability, T/C",[4],103%
same,"viability, T/C",[5],99.7%
same,"viability, T/C",[6],88.1%
same,"viability, T/C",[7],88.6%
same,"viability, T/C",[8],91.2%
same,"viability, T/C",[9],84.1%
same,"viability, T/C",[10],92.7%
same,"viability, T/C",[11],80%
same,"viability, T/C",[12],86.4%
same,"viability, T/C",[13],84.7%
same,"viability, T/C",[14],78.9%
same,"viability, T/C",[15],81.3%
same,"viability, T/C",[16],72.8%
same,"viability, T/C",[17],90%
same,"viability, T/C",[18],78.5%
same,"viability, T/C",[19],66.4%
same,"viability, T/C",[20],71.4%
same,"viability, T/C",[21],59.3%
same,"viability, T/C",[22],83.3%
same,"viability, T/C",[23],76.2%
same,"viability, T/C",[24],62.8%
same,"viability, T/C",[25],59.6%
same,"viability, T/C",[26],53.1%
same,"viability, T/C",[27],62.3%
same,"viability, T/C",[28],58.1%
same,"viability, T/C",[29],67.2%
same,"viability, T/C",[30],58.8%
same,"viability, T/C",[31],38.9%
same,"viability, T/C",[32],38.5%
same,"viability, T/C",[33],39.3%
same,"viability, T/C",[34],46.7%
same,"viability, T/C",[35],45.7%
same,"viability, T/C",[36],46.1%
CC(C)n1nc(-c2ccc3oc(N)nc3c2)c2c(N)ncnc21 + CC(Nc1ncnc2nc[nH]c12)c1cc2cccc(Cl)c2c(=O)n1-c1ccccc1,IC50,second compound 0.0316 µM,41.9 nM
same,IC50,second compound 0.1 µM,34.5 nM
same,IC50,second compound 0.316 µM,37.9 nM
same,IC50,second compound 1 µM,24 nM
same,IC50,second compound 3.16 µM,11.3 nM
same,IC50,second compound 10 µM,< 0.316 nM
same,"viability, T/C",[1],81.5%
same,"viability, T/C",[2],81.4%
same,"viability, T/C",[3],96.1%
same,"viability, T/C",[4],82.2%
same,"viability, T/C",[5],60%
same,"viability, T/C",[6],19.5%
same,"viability, T/C",[7],77.6%
same,"viability, T/C",[8],91.5%
same,"viability, T/C",[9],77.9%
same,"viability, T/C",[10],66%
same,"viability, T/C",[11],54.4%
same,"viability, T/C",[12],19.8%
same,"viability, T/C",[13],91.6%
same,"viability, T/C",[14],59.7%
same,"viability, T/C",[15],77.4%
same,"viability, T/C",[16],73.8%
same,"viability, T/C",[17],55.2%
same,"viability, T/C",[18],17.4%
same,"viability, T/C",[19],69.3%
same,"viability, T/C",[20],68.4%
same,"viability, T/C",[21],64.1%
same,"viability, T/C",[22],57%
same,"viability, T/C",[23],49.6%
same,"viability, T/C",[24],15.8%
same,"viability, T/C",[25],50.2%
same,"viability, T/C",[26],54.8%
same,"viability, T/C",[27],57.4%
same,"viability, T/C",[28],50.9%
same,"viability, T/C",[29],36.2%
same,"viability, T/C",[30],13.2%
same,"viability, T/C",[31],41.5%
same,"viability, T/C",[32],39.7%
same,"viability, T/C",[33],38.8%
same,"viability, T/C",[34],40%
same,"viability, T/C",[35],26.4%
same,"viability, T/C",[36],9.66%
CCCS(=O)(=O)Nc1ccc(F)c(C(=O)c2c[nH]c3ncc(-c4ccc(Cl)cc4)cc23)c1F + CC(Nc1ncnc2nc[nH]c12)c1cc2cccc(Cl)c2c(=O)n1-c1ccccc1,IC50,second compound 0.0316 µM,4450 nM
same,IC50,second compound 0.1 µM,3910 nM
same,IC50,second compound 0.316 µM,3740 nM
same,IC50,second compound 1 µM,3490 nM
same,IC50,second compound 3.16 µM,2530 nM
same,IC50,second compound 10 µM,< 31.6 nM
same,"viability, T/C",[5],96.6%
same,"viability, T/C",[6],86.8%
same,"viability, T/C","second compound 0.0316 µM, first compound 0.316 µM",84.3%
same,"viability, T/C","second compound 0.0316 µM, first compound 1 µM",83.2%
same,"viability, T/C","second compound 0.0316 µM, first compound 3.16 µM",65.3%
same,"viability, T/C","second compound 0.0316 µM, first compound 10 µM",15.6%
same,"viability, T/C",[11],92.4%
same,"viability, T/C",[12],90.9%
same,"viability, T/C","second compound 0.1 µM, first compound 0.316 µM",76.3%
same,"viability, T/C","second compound 0.1 µM, first compound 1 µM",82.2%
same,"viability, T/C","second compound 0.1 µM, first compound 3.16 µM",58.1%
same,"viability, T/C","second compound 0.1 µM, first compound 10 µM",13.4%
same,"viability, T/C",[17],83.2%
same,"viability, T/C",[18],89.2%
same,"viability, T/C","second compound 0.316 µM, first compound 0.316 µM",78.3%
same,"viability, T/C","second compound 0.316 µM, first compound 1 µM",73.6%
same,"viability, T/C","second compound 0.316 µM, first compound 3.16 µM",57.2%
same,"viability, T/C","second compound 0.316 µM, first compound 10 µM",14%
same,"viability, T/C",[23],61.7%
same,"viability, T/C",[24],66.1%
same,"viability, T/C","second compound 1 µM, first compound 0.316 µM",69%
same,"viability, T/C","second compound 1 µM, first compound 1 µM",68.3%
same,"viability, T/C","second compound 1 µM, first compound 3.16 µM",53.6%
same,"viability, T/C","second compound 1 µM, first compound 10 µM",11%
same,"viability, T/C",[29],53.6%
same,"viability, T/C",[30],64.3%
same,"viability, T/C","second compound 3.16 µM, first compound 0.316 µM",49.3%
same,"viability, T/C","second compound 3.16 µM, first compound 1 µM",57.7%
same,"viability, T/C","second compound 3.16 µM, first compound 3.16 µM",48.4%
same,"viability, T/C","second compound 3.16 µM, first compound 10 µM",11.2%
same,"viability, T/C",[35],40.3%
same,"viability, T/C",[36],39.3%
same,"viability, T/C","second compound 10 µM, first compound 0.316 µM",40.6%
same,"viability, T/C","second compound 10 µM, first compound 1 µM",42.9%
same,"viability, T/C","second compound 10 µM, first compound 3.16 µM",41.1%
same,"viability, T/C","second compound 10 µM, first compound 10 µM",8.78%

# From PubChem BioAssay AID1963960 (Molecular Pharmacology Branch, DTP, NCI, 2024)
